Some test systems named below: RXF 393; UACC-257; OVCAR-5; SK-MEL-2; HCC 2998; DU-145; A549; SF-295; NCI-H460; U-251; SK-OV-3; COLO 205; TK-10; OVCAR-4; SN12C; SF-539; NCI-H522; SR; IGROV-1; NCI/ADR-RES.
Holding throughout (experiment): DTP human tumour cell line panel, 48 h

Each structure is given as a SMILES string.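 Results reflect a 48-hour exposure of cells in 96-well plates to compound at five concentrations. GI50: concentration for 50% inhibition of growth.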 Activity calls are given as the source filed them. No stated cut-off is given here; in the data, active = GI50 up to about 1.1 µM and inactive = higher.

From ChEMBL document CHEMBL1201862, “PubChem BioAssay data set” (2004) come the findings set out here.

On to `CC(C)CC(O)P(=O)(O)O.NC1CCCCC1` (stereo unspecified), for which the GI50 in the assay on RXF 393, with UACC-257, in the assay with OVCAR-5, in the assay on SK-MEL-2, in the assay with HCC 2998 and with DU-145 was > 100 µM (inactive) each time. Also, the GI50 in the assay with A549, in the assay on SF-295, with NCI-H460, with U-251, in the assay on SK-OV-3 and with COLO 205 was > 100 µM (inactive) in each case. Also, the GI50 in the assay on TK-10, in the assay with OVCAR-4 and with SN12C was > 100 µM (inactive) in each case.

As for `O=Cc1ccc2c(c1)CC1(Cc3ccccc3C1)C2`, the GI50 (commonly the concentration giving 50% growth inhibition) with RXF 393 was > 100 µM (inactive); with SF-539 it was 17.3 µM (inactive); with UACC-257 it was 20.5 µM (inactive); in the assay on OVCAR-5 it was > 100 µM (inactive); in the assay with NCI-H522 it was 48.4 µM (inactive); in the assay on SK-MEL-2, 11.2 µM (inactive). Also, the GI50 in the assay with HCC 2998 is 59 µM (inactive); in the assay with A549, > 100 µM (inactive); in the assay on SF-295 it was 31.3 µM (inactive); with U-251, 17.8 µM (inactive); with SK-OV-3, 38.1 µM (inactive); in the assay on SR, 2.82 µM (inactive). Moreover, the GI50 was 20.5 µM (inactive) in the assay on IGROV-1; 21.8 µM (inactive) in the assay on COLO 205; 36.6 µM (inactive) with TK-10; 17.6 µM (inactive) with OVCAR-4; 18.1 µM (inactive) in the assay with SN12C; 26.5 µM (inactive) with NCI/ADR-RES.

`COP(=O)(OC)C(O)CC(C)C` (stereo unspecified): the GI50 with RXF 393, in the assay with UACC-257, in the assay with OVCAR-5, in the assay with SK-MEL-2, with HCC 2998 and in the assay on DU-145 was > 100 µM (inactive) in each case. Besides, the GI50 in the assay on A549, with SF-295, with NCI-H460, in the assay with U-251, in the assay with SK-OV-3 and in the assay on COLO 205 was > 100 µM (inactive) each time. Further, the GI50 in the assay with TK-10, with OVCAR-4 and in the assay on SN12C was > 100 µM (inactive) throughout.

Turning to `Cc1cc(C)c2nccc(NCCCN(C)C)c2c1[N+](=O)[O-]`, the GI50 in the assay on RXF 393 is 19.5 µM (inactive); with SF-539 it was 34.9 µM (inactive); with UACC-257 it was 17.1 µM (inactive); in the assay with OVCAR-5 it was 44 µM (inactive); with NCI-H522 it was 14.4 µM (inactive); in the assay with SK-MEL-2, 23.8 µM (inactive). Besides, the GI50 was 22.8 µM (inactive) with HCC 2998; 44.2 µM (inactive) in the assay on DU-145; 30.8 µM (inactive) with A549; 26.1 µM (inactive) in the assay on SF-295; 26.8 µM (inactive) with NCI-H460; 52.5 µM (inactive) with U-251. The GI50 in the assay on SK-OV-3 is > 100 µM (inactive); with SR it was 30.6 µM (inactive); in the assay with IGROV-1, 19.6 µM (inactive); in the assay on COLO 205, 14.8 µM (inactive); in the assay with TK-10 it was 30.8 µM (inactive); in the assay with OVCAR-4, 13.8 µM (inactive). In the assay on SN12C, the GI50 was 40.9 µM (inactive).

As for `CC(=O)c1c[nH]cc1CO`, the GI50 in the assay on RXF 393, in the assay on SF-539, with OVCAR-5, in the assay with SK-MEL-2, with HCC 2998 and with A549 was > 10 µM (inactive) in each case. Moreover, the GI50 in the assay with SF-295, in the assay on NCI-H460, in the assay on U-251, in the assay with SK-OV-3, in the assay with SR and in the assay with IGROV-1 was > 10 µM (inactive) each time. The GI50 with COLO 205, in the assay on TK-10, in the assay with SN12C and in the assay with NCI/ADR-RES was > 10 µM (inactive) each time.

As to `C[C@]12CCNC(=O)C=C1CC[C@@H]1C2CC[C@@]2(C)C1CC[C@@H]2OC(=O)COc1ccc(N(CCCl)CCCl)cc1` (stereo partly specified), the GI50 with RXF 393 is 4.37 µM (inactive); with SF-539 it was 2.07 µM (inactive); in the assay on UACC-257 it was 13.8 µM (inactive); in the assay with OVCAR-5 it was 12.6 µM (inactive); in the assay on NCI-H522 it was 1.65 µM (inactive); in the assay on SK-MEL-2 it was 18.5 µM (inactive). Moreover, the GI50 in the assay with HCC 2998 is 3.84 µM (inactive); with DU-145, 4.54 µM (inactive); in the assay on A549 it was 5.37 µM (inactive); in the assay with SF-295 it was 8.09 µM (inactive); in the assay on NCI-H460, 0.308 µM (active); in the assay on U-251, 2.03 µM (inactive). The GI50 with SK-OV-3 was 6.27 µM (inactive); in the assay on SR, 0.138 µM (active); in the assay on IGROV-1, 13.1 µM (inactive); in the assay on COLO 205, 9.08 µM (inactive); with TK-10, 17.6 µM (inactive); in the assay on OVCAR-4, 6.11 µM (inactive). In the assay on SN12C, the GI50 was 4.65 µM (inactive).

Take `C/C(=N\NC(=O)c1ccncc1)c1cccc(F)c1`: the GI50 with RXF 393, with SF-539, with OVCAR-5, in the assay on SK-MEL-2, in the assay on HCC 2998 and with A549 was > 10 µM (inactive) each time. In addition, the GI50 in the assay on SF-295, in the assay on NCI-H460, in the assay on U-251, with SK-OV-3, in the assay with SR and in the assay with IGROV-1 was > 10 µM (inactive) throughout. Also, the GI50 in the assay on COLO 205, with TK-10, with SN12C and with NCI/ADR-RES was > 10 µM (inactive) each time.

Take `O=C1CN(c2ccccc2)C(=O)CN1NCNN1CC(=O)N(c2ccccc2)CC1=O`: the GI50 in the assay on RXF 393, in the assay with SF-539, in the assay on UACC-257, in the assay on OVCAR-5, in the assay with NCI-H522 and in the assay on HCC 2998 was > 100 µM (inactive) each time. Also, the GI50 with DU-145, in the assay on A549, in the assay on SF-295, with NCI-H460, with U-251 and in the assay on SK-OV-3 was > 100 µM (inactive) each time. The GI50 in the assay on SR, in the assay on IGROV-1, in the assay with COLO 205, with TK-10, in the assay on OVCAR-4 and in the assay with SN12C was > 100 µM (inactive) each time.
